In PubChem BioAssay AID1963865 (Molecular Pharmacology Branch, DTP, NCI, 2024):
pIC50: −log10 of the molar value.

Tested on: KRAS PDC multicell spheroid viability
Assay: Anticancer human tumor 825966-067-R-J1-PDC patient-derived colon carcinoma cell line growth inhibition [KRAS2]
Settings: for pIC50: curve of first compound; for viability, T/C: stronger effect = lower value
Procedure, shortened: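 Combination screen of spheroid viability in tumor-cell co-cultures with endothelial (HUVEC) and mesenchymal stem cell stroma. Each agent was tested in half-log dilutions, topping at clinical Cmax or at 10 microM without a known Cmax.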

[1] = second compound 0.1 µM, first compound 0.000316 µM
[2] = second compound 0.1 µM, first compound 0.001 µM
[3] = second compound 0.1 µM, first compound 0.00316 µM
[4] = second compound 0.1 µM, first compound 0.01 µM
[5] = second compound 0.1 µM, first compound 0.0316 µM
[6] = second compound 0.1 µM, first compound 0.1 µM
[7] = second compound 0.316 µM, first compound 0.000316 µM
[8] = second compound 0.316 µM, first compound 0.001 µM
[9] = second compound 0.316 µM, first compound 0.00316 µM
[10] = second compound 0.316 µM, first compound 0.01 µM
[11] = second compound 0.316 µM, first compound 0.0316 µM
[12] = second compound 0.316 µM, first compound 0.1 µM
[13] = second compound 1 µM, first compound 0.000316 µM
[14] = second compound 1 µM, first compound 0.001 µM
[15] = second compound 1 µM, first compound 0.00316 µM
[16] = second compound 1 µM, first compound 0.01 µM
[17] = second compound 1 µM, first compound 0.0316 µM
[18] = second compound 1 µM, first compound 0.1 µM
[19] = second compound 3.16 µM, first compound 0.000316 µM
[20] = second compound 3.16 µM, first compound 0.001 µM
[21] = second compound 3.16 µM, first compound 0.00316 µM
[22] = second compound 3.16 µM, first compound 0.01 µM
[23] = second compound 3.16 µM, first compound 0.0316 µM
[24] = second compound 3.16 µM, first compound 0.1 µM
[25] = second compound 10 µM, first compound 0.000316 µM
[26] = second compound 10 µM, first compound 0.001 µM
[27] = second compound 10 µM, first compound 0.00316 µM
[28] = second compound 10 µM, first compound 0.01 µM
[29] = second compound 10 µM, first compound 0.0316 µM
[30] = second compound 10 µM, first compound 0.1 µM
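Note: spheroids exposed to compounds for 7 days.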
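Throughout, for viability, T/C: 100% = DMSO vehicle control viability.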

SMILES	pIC50 (second compound 0.1 µM)	pIC50 (second compound 0.316 µM)	pIC50 (second compound 1 µM)	pIC50 (second compound 3.16 µM)	viability, T/C [1] [%]	viability, T/C [2] [%]	viability, T/C [3] [%]	viability, T/C [4] [%]	viability, T/C [5] [%]	viability, T/C [7] [%]	viability, T/C [8] [%]	viability, T/C [9] [%]	viability, T/C [10] [%]	viability, T/C [11] [%]	viability, T/C [13] [%]	viability, T/C [14] [%]	viability, T/C [15] [%]	viability, T/C [16] [%]	viability, T/C [17] [%]	viability, T/C [19] [%]	also measured
CN(C)C/C=C/C(=O)Nc1cc2c(Nc3ccc(F)c(Cl)c3)ncnc2cc1O[C@H]1CCOC1 + C=CC(=O)N1CCN(c2nc(OCC3CCCN3C)nc3c2CCN(c2cccc4cccc(C)c24)C3)CC1CC#N	< 7.00	< 7.00	< 7.00	< 7.00	114	107	100	94.3	86.8	100	107	74.8	83.8	77	94.7	84.9	89.3	98.7	107	111	pIC50 (second compound 0.0316 µM): < 7.00; viability, T/C (second compound 0.0316 µM, first compound 0.000316 µM): 92%; viability, T/C (second compound 0.0316 µM, first compound 0.001 µM): 105%; viability, T/C (second compound 0.0316 µM, first compound 0.00316 µM): 86%; viability, T/C (second compound 0.0316 µM, first compound 0.01 µM): 83.4%; viability, T/C (second compound 0.0316 µM, first compound 0.0316 µM): 94.5%; viability, T/C (second compound 0.0316 µM, first compound 0.1 µM): 99.7%; viability, T/C [6]: 88%; viability, T/C [12]: 81.4%; viability, T/C [18]: 77.5%; viability, T/C [20]: 83.6%; viability, T/C [21]: 87.5%; viability, T/C [22]: 100%; viability, T/C [23]: 67.7%; viability, T/C [24]: 114%
CC(C)n1nc(-c2ccc3oc(N)nc3c2)c2c(N)ncnc21 + CNCc1ccccc1-c1csc(C(C)Nc2nc(C)nc3cc(OC)c(OC)cc23)c1	< 7.00	< 7.00	< 7.00	8.72	126	113	159	185	128	117	150	172	136	142	131	135	156	132	76.4	66.2	pIC50 (second compound 10 µM): > 9.50; viability, T/C [6]: 154%; viability, T/C [12]: 109%; viability, T/C [18]: 84.2%; viability, T/C [20]: 105%; viability, T/C [21]: 22.9%; viability, T/C [22]: 1.2%; viability, T/C [23]: 12.4%; viability, T/C [24]: 2.02%; viability, T/C [25]: 0.21%; viability, T/C [26]: 0.64%; viability, T/C [27]: 1.75%; viability, T/C [28]: 0.23%; viability, T/C [29]: 0.41%; viability, T/C [30]: 0.41%
CC(C)NCC(C(=O)N1CCN(c2ncnc3c2C(C)CC3O)CC1)c1ccc(Cl)cc1 (centres undefined)																					viability, T/C (compound 0.316 µM): 113% [middle of 5 runs]; viability, T/C (compound 3.16 µM): 32.6% [middle of 5 runs]; viability, T/C (compound 10 µM): 10% [middle of 5 runs]; IC50 (curve of compound): 2.24 µM [middle of 5 runs]
CN(C)C/C=C/C(=O)Nc1cc2c(Nc3ccc(F)c(Cl)c3)ncnc2cc1O[C@H]1CCOC1 + C=CC(=O)N1CCN(c2nc(=O)n(-c3c(C)ccnc3C(C)C)c3nc(-c4c(O)cccc4F)c(F)cc23)C(C)C1	< 7.00	< 7.00	< 7.00	< 7.00	104	114	110	101	94.5	97.8	106	91.8	101	103	110	101	91.2	112	99.3	98.8	pIC50 (second compound 10 µM): < 7.00; viability, T/C [6]: 106%; viability, T/C [12]: 117%; viability, T/C [18]: 107%; viability, T/C [20]: 64.3%; viability, T/C [21]: 93.2%; viability, T/C [22]: 107%; viability, T/C [23]: 89%; viability, T/C [24]: 103%; viability, T/C [25]: 86.4%; viability, T/C [26]: 73.5%; viability, T/C [27]: 94.9%; viability, T/C [28]: 86.4%; viability, T/C [29]: 83.5%; viability, T/C [30]: 84.1%
CC(=O)Nc1cccc(-n2c(=O)n(C3CC3)c(=O)c3c(Nc4ccc(I)cc4F)n(C)c(=O)c(C)c32)c1 + COc1cc2nc(C)nc(NC(C)c3cc(N)cc(C(F)(F)F)c3)c2cc1OC1CCOC1	< 7.50	7.53	7.73	8.49	114	144	128	64	84.8	126	128	110	94.2	47.3	103	113	114	72.3	30.6	109	pIC50 (second compound 10 µM): > 10.00; viability, T/C (second compound 0.1 µM, first compound 0.0001 µM): 95.3%; viability, T/C (second compound 0.316 µM, first compound 0.0001 µM): 95%; viability, T/C (second compound 1 µM, first compound 0.0001 µM): 98.5%; viability, T/C (second compound 3.16 µM, first compound 0.0001 µM): 109%; viability, T/C [20]: 128%; viability, T/C [21]: 50.9%; viability, T/C [22]: 18.8%; viability, T/C [23]: 5.41%; viability, T/C (second compound 10 µM, first compound 0.0001 µM): 2.53%; viability, T/C [25]: 2.62%; viability, T/C [26]: 0.97%; viability, T/C [27]: 0.39%; viability, T/C [28]: 0.39%; viability, T/C [29]: 0.27%
